Results from US20240279687A1, “PEPTIDE NUCLEIC ACIDS FOR SPATIOTEMPORAL CONTROL OF CRISPR-CAS BINDING” (Yale University, priority 2021, published 2024).
{Lys} = L-lysine residue attached to the PNA terminus

Legend:
[1] = test system: 20mer RNA oligonucleotide (spacer sequence designed to target the BFP gene); assay: UV spectroscopy thermal melting analysis of duplexes; assay type: binding; conditions: 1 μM each strand, 10 mM sodium phosphate buffer pH 7.4
Description: All samples were prepared by mixing a stoichiometric amount of each strand (1 μM) in 10 mM sodium phosphate buffer at pH 7.4 (Table 8). The samples were pre-annealed at 95° C. for 5 mins and gradually cooled to room temperature prior to the melting experiment. UV melting experiments were performed using a Shimadzu UV-3600 Plus UV-Vis-NIR spectrophotometer equipped with a thermoelectrically controlled multicell holder. UV melting spectra were recorded after every 1° C. temperature change by monitoring the absorbance at 260 nm from 20° C. to 110° C. to 20° C., with a heating/cooling ramp rate of 1.0° C./min. The heating and cooling curves were overlapped to confirm reversible denaturation. All spectra were plotted on Origin 2020 and smoothed using a 20-point adjacent averaging algorithm. The first derivative plots of the melting curves were generated to determine the melting temperature for each duplex.

[2] = test system: Cas9 RNP using a sgRNA targeted to the BFP gene; assay: Cas9 RNP editing of BFP reporter gene in K562-BFP cells (BFP fluorescent drop out, flow cytometry); assay type: cell-based, human; conditions: for inhibitory effect on Cas9-mediated BFP gene disruption and indel formation: 0-250 pmol nucleofected 2 hours prior to Cas9 RNP
Description: (§1) For Cas9 RNP assembly, 50 pmol of sgRNA (IDT, Alt-R CRISPR-Cas9 sgRNA) and 45 pmol of SpCas9 (CPO2, PNA BIO) were incubated at room temperature for 10 minutes in a 5 μL reaction in 1×3.1 Buffer (B7203S, NEB). For nucleofections, 1×10^6 cells, 5 μL Cas9 RNP, and 1 μL of Alt-R Cas9 electroporation enhancer (IDT) were resuspended in 100 μL of Lonza cell line solution (V4XC-2024/V4XC-1024, Lonza) and nucleofected using a Lonza 4D-Nucleofector X unit. Cas9 RNP treated cells were seeded in 2 mL of complete media and incubated for 96 hours prior to harvesting for analysis.
(§2) For PNA pre-treatments, 1×10^6 cells and 1 μL of PNA diluted to desired concentration in water were similarly nucleofected using Lonza cell line kits and 4D-Nucleofector. PNA nucleofected cells were resuspended in 1.25 mL of complete media in 1.5 mL tubes and incubated at 37° C. for 2 hours before Cas9 RNP nucleofection as described above. After Cas9 RNP nucleofection cells were seeded in 2 mL of complete media and incubated for 96 hours prior to harvesting and analysis.
K562 cells were spun down and resuspended in fresh complete media at 300,000 cells/mL 48 hours prior to analysis. Samples for flow cytometry were fixed in complete media with 1% formaldehyde for 15 minutes before spinning down, resuspending in 300 μL PBS, and filtering through a cell strainer capped tube. Samples were analyzed for BFP and GFP fluorescence using a Cytoflex LX instrument (Beckman Coulter) using PacificBlue and FITC lasers, respectively, and quantification and gating was done using FloJo v10 software. Background fluorescent drop out was determined by measurement of mock nucleofected lines in quadruplicate and subtracted from experimental values to determine reported editing frequency.
10^6 stable BFP-expressing K562 cells were nucleofected (Lonza 4D Nucleofector) with a specified dose of PNA or ssDNA oligo (0-250 pmol). Two hours later, all conditions were nucleofected with 45 pmol of purified Cas9 RNP using a sgRNA targeted to the BFP gene. 72 hours later, cells with BFP fluorescent drop out (via Cas9 indel formation) were quantified by flow cytometry (Beckman Coulter—Cytoflex instrument).
In time-course experiments in FIG. 3D, K562 samples were nucleofected with 5 μL RNP reactions with the addition of 100 pmol of ssODN donor in 1 μL of water. RNP nucleofected samples were incubated at 37° C. in complete media before being spun down and nucleofected with 250 pmol of PNA at specified time points. After PNA delivery cells were seeded in 2 mL of complete media and incubated for 96 hours prior to harvesting and analysis.
10^6 stable BFP-expressing K562 cells were nucleofected (Lonza 4D Nucleofector) with specified dose (0-250 pmol, or 250 pmol if unspecified) of specified PNA with sequences homologous to (antispacer) or identical to (cis-spacer) the BFP gRNA spacer sequence. Two hours later, all conditions were nucleofected with 45 pmol of purified Cas9 RNP using a sgRNA targeted to the BFP gene. 72 hours later, cells with BFP fluorescent drop out (via Cas9 indel formation) were quantified by flow cytometry (Beckman Coulter—Cytoflex instrument).
10^6 stable BFP-expressing K562 cells were nucleofected (Lonza 4D Nucleofector) with 45 pmol of purified Cas9 RNP using a sgRNA targeted to the BFP gene. At each specified time point 250 pmol of BFP Anti-protospacer PNA were introduced via nucleofection. For “Cas9 only” condition there was no second PNA nucleofection and for “0 hrs” 250 pmol of PNA was co-nucleofected with Cas9 in a single reaction. After each nucleofection samples were left in fresh media for the duration of the experiment to acquire edits. 72 hours after the “24 hrs” nucleofection, cells for all conditions with BFP fluorescent drop out (via Cas9 indel formation) were quantified by flow cytometry (Beckman Coulter—Cytoflex instrument).

[3] = test system: Cas9 RNP, ZSCAN2 sgRNA, ZSCAN2 ON site; assay: ZSCAN2 on-target editing in K562 cells (amplicon sequencing); assay type: cell-based, human; conditions: PNA pre-treatment 2 hours before Cas9 RNP (FIG. 10A: 50 pmol PNA)
Description: as §1
(§3) For PNA pre-treatments, 1×10^6 cells and 1 μL of PNA diluted to desired concentration in water were similarly nucleofected using Lonza cell line kits and 4D-Nucleofector. PNA nucleofected cells were resuspended in 1.25 mL of complete media in 1.5 mL tubes and incubated at 37° C. for 2 hours before Cas9 RNP nucleofection as described above. […]
(§4) Genomic DNA was purified from 0.5×10^6 cells using Promega ReliaPrep gDNA Tissue Miniprep System (A2052) and eluted in 50 μL of water. […] FASTQ reads were subjected to quality analysis (Basespace FASTQC) and analyzed for indel frequency using Cas-Analyzer assessment tool (parameters: Comparison range (R)—both ends of full amplicon sequence, Minimum frequency (n)=1). gRNAs used in this study are listed in Table 8, amplicon genomic coordinates listed in Table 9.

[4] = test system: Cas9 RNP (FANCF, EMX1, ZSCAN2, CCR5, VEGFA gRNAs); assay: On-target specificity of Cas9 RNP (ratio of on-target to off-target editing rates); assay type: cell-based, human
Description: as §2
(§5) Genomic DNA was purified from 0.5×10^6 cells using Promega ReliaPrep gDNA Tissue Miniprep System (A2052) and eluted in 50 μL of water. Library prep used 100 ng of gDNA input with Ampliseq for Illumina Library Plus kit (20019101, Illumina) and used a custom primer pool designed to amplify a designed panel of genomic targets of interest (Table 9). Libraries were indexed, pooled, and loaded onto a Mid-output (300-cycles, Illumina, FC-420-1004) cartridge for paired-end sequencing on an Illumina Miniseq instrument. FASTQ reads were subjected to quality analysis (Basespace FASTQC) and analyzed for indel frequency using Cas-Analyzer assessment tool (parameters: Comparison range (R)—both ends of full amplicon sequence, Minimum frequency (n)=1). gRNAs used in this study are listed in Table 8, amplicon genomic coordinates listed in Table 9.
In the case of EMX1 ON and OFF target amplicons, both regions were amplified from 200 ng of purified gDNA by Phusion High-Fidelity Polymerase (NEB, M0530S) and pooled and purified using QIAGEN PCR purification kit (28104, Qiagen). Library prep used 200 ng of purified amplicon input with Illumina DNA Prep kit (20025519, Illumina). EMX1 libraries were similarly indexed, pooled, sequenced, and analysed as above.
For pre-annealed PAM-distal PNA experiments, 50 pmol of sgRNA and 50 pmol of PAM-distal 10mer PNAs were incubated in a thermocycler at 37° C. for 30 minutes in a 5 μL reaction in 1×3.1 Buffer (B7203S, NEB) to allow annealing. PNA annealing to sgRNAs was confirmed by gel shift on 5% polyacrylamide gel. 45 pmol of SpCas9 (CP02, PNA BIO) was then added at room temperature and incubated for 10 minutes to allow RNP formation. Resulting reaction was delivered to 1×10^6 K562 cells by a single nucleofection and treated as described above.

[5] = test system: Cas9 RNP, ZSCAN2 sgRNA, ZSCAN2 off-target site; assay: ZSCAN2 off-target editing in K562 cells (amplicon sequencing); assay type: cell-based, human; conditions: PNA pre-treatment 2 hours before Cas9 RNP (FIG. 10A: 50 pmol PNA)
Description: as §1, §3, §4

[6] = test system: Cas9 RNP, FANCF sgRNA, FANCF OT1 site; assay: FANCF off-target editing in K562 cells (amplicon sequencing); assay type: cell-based, human
Description: as §1, §2
as §5, with “Libraries were indexed, pooled, and loaded onto a Mid-output (300-cycles, Illumina, FC-420-1004) cartridge for paired-end sequencing on an Illumina Miniseq instrument.” left out
(§6) 10^6 K562 cells were nucleofected (Lonza 4D Nucleofector) with specified dose (0-150 pmol) of FANCF PAM-distal 10mer PNA. […] Sequencing data was analyzed for indel frequency using a validated Cas-Analyzer tool (Park, et al., Bioinformatics 33, 286-288 (2017)).

[7] = test system: Cas9 RNP, FANCF sgRNA, FANCF ON site; assay: FANCF on-target editing in K562 cells (amplicon sequencing); assay type: cell-based, human
Description: For Cas9 RNP assembly, 50 pmol of sgRNA (IDT, Alt-R CRISPR-Cas9 sgRNA) and 45 pmol of SpCas9 (CPO2, PNA BIO) were incubated at room temperature for 10 minutes in a 5 μL reaction in 1×3.1 Buffer (B7203S, NEB). For nucleofections, 1×10^6 cells, 5 μL Cas9 RNP, and 1 μL of Alt-R Cas9 electroporation enhancer (IDT) were resuspended in 100 μL of Lonza cell line solution (V4XC-2024/V4XC-1024, Lonza) and nucleofected using a Lonza 4D-Nucleofector X unit. Cas9 RNP treated cells were seeded in 2 mL of complete media and incubated for 96 hours prior to harvesting for analysis. […]
as §4, §6

[8] = test system: BFP sgRNA and BFP Cas9 RNP; assay: sgRNA binding assay (EMSA) with TAMRA dye-labeled PNA, BFP target
Description: (§7) 10 pmol of BFP or HBB sgRNA were incubated with or without 10 pmol of purified Cas9 (Sigma) in 20 μL of 1×NEB buffer 3.1 for 15 minutes at room temp. Then, specified doses of a TAMRA dye labeled antispacer BFP ssPNA was added to each reaction and tubes were incubated in thermocycler for 30 minutes at 37C. 5 μL of resulting reactions were run on pre-cast 5% polyacrylamide TBE gels (BIORAD). The gel was washed in 1×TBE buffer and imaged for TAMRA signal using a Gel Doc XR+ gel imager system (BIORAD). Gel was then incubated in 1×SYBR Gold in TBE for 5 minutes, washed in 1×TBE, and imaged for nucleic acid staining on Gel Doc XR+ imager. Resulting images were superimposed using ImageJ.

[9] = test system: HBB sgRNA and HBB Cas9 RNP; assay: sgRNA binding assay (EMSA) with TAMRA dye-labeled PNA, HBB target; conditions: heterologous spacer sequence (HBB target)
Description: as §7

[10] = test system: Cas9 RNP, CCR5 R30 sgRNA, CCR5 ON site; assay: CCR5 on-target editing in K562 cells (amplicon sequencing); assay type: cell-based, human; conditions: PNA pre-treatment 2 hours before Cas9 RNP (FIG. 10A: 50 pmol PNA)
Description: as §1, §3, §4

[11] = test system: Cas9 RNP, CCR5 R30 sgRNA, CCR2 off-target site; assay: CCR5 gRNA off-target editing in the CCR2 gene in K562 cells (amplicon sequencing); assay type: cell-based, human; conditions: PNA pre-treatment 2 hours before Cas9 RNP (FIG. 10A: 50 pmol PNA)
Description: as §1, §3, §4

ATGGCGTGCAGTGCTTCAGC (KKK-ATGGCGTGCAGTGCTTCAGC-KKK; as printed in the source, key not given here) [Anti-protospacer ssDNA oligo, reference compound]
Tm of duplex with RNA spacer sequence [1]: 56 °C | inhibitory effect on Cas9-mediated BFP gene disruption and indel formation [2]: entirely ineffective | inhibitory effect on Cas9-mediated BFP gene disruption and indel formation ([2]; listed as antispacer DNA): no effect

CTTGCCGCAC (all peptide nucleic acid (PNA); further chemistry not fully specified) [ZSCAN PAMdist 10 mer PNA, 1 Lysine (K) on either end]
decrease of on-target editing [3]: 80.3% | overall increase in specificity ([4]; K562 cells, PNA pre-treatment): not observed | decrease of off-target editing [5]: 66.3%

K-CTTCTGCAGC-K (all peptide nucleic acid (PNA), 5' {Lys}, 3' {Lys}) [FANCF PAM-Distal 10 mer PNA]
difference in editing reduction, off-target versus on-target ([6]; 50 pmol): 11.6 fold | off-target editing ([6]; 50 pmol PNA (7.13% without PNA)): 3.07% | reduction of off-target editing ([6]; 50 pmol, 1:1 PNA:sgRNA ratio, compared to Cas9 RNP only): 57.1% | on-target editing ([7]; 50 pmol PNA (98.0% without PNA)): 93.2% | reduction of on-target editing ([7]; 50 pmol, 1:1 PNA:sgRNA ratio): 4.9% | specificity ratio versus Cas9 only ([4]; K562, HEK293, and U2OS cell lines, PNA pre-treatment prior to Cas9 RNP nucleofection): significantly increased specificity ratios | specificity versus pre-treatment approaches ([4]; PNA pre-annealed to sgRNA prior to Cas9 RNP formation, delivered as a single complex, K562): further improved specificity

KKK-ATGGCGTGCAGTGCTTCAGC-KKK (all peptide nucleic acid (PNA), 5' {Lys}-{Lys}-{Lys}, 3' {Lys}-{Lys}-{Lys}) [BFP Antispacer PNA]
Tm of duplex with RNA spacer sequence [1]: > 100 °C | inhibitory effect on Cas9-mediated BFP gene disruption and indel formation [2]: robust dose-dependent inhibitory effect | block of indel formation (NHEJ) and template-mediated editing (HDR) when PNA is introduced after Cas9 RNP ([2]; 250 pmol PNA at time-points up to 24 hours after Cas9 RNP/ssODN nucleofection): rapidly and proportionally block both indel formation (NHEJ) and template-mediated editing (HDR)

TAMRA-KKK-ATGGCGTGCAGTGCTTCAGC-KKK (all peptide nucleic acid (PNA); N-terminal TAMRA dye, three lysines flank each end) [TAMRA BFP Antispacer PNA, TAMRA dye conjugated at N-terminus]
additional binding at 20 pmol (2×) doses compared to 10 pmol ([8]; 10 pmol sgRNA, 10 pmol Cas9): no significant additional binding | increase in PNA binding (TAMRA-Cas9 RNP gel bands) between 5 pmol (0.5×) and 10 pmol (1×) conditions ([8]; 10 pmol sgRNA, 10 pmol Cas9): 2.09 fold | PNA-TAMRA signal co-localization with sgRNA and RNP bands ([8]; sequence-matched (BFP target)): strongly co-localized | PNA-TAMRA signal co-localization with sgRNA and RNP bands [9]: not

TCCGCTCTAC (all peptide nucleic acid (PNA); further chemistry not fully specified) [CCR5 PAMdist 10 mer PNA, 1 Lysine (K) on either end]
decrease of on-target editing [10]: 79.1% | off-target editing in the CCR2 gene [11]: undetectable
